Source: patent publication EP2147919A1, “Heterocyclic substituted amides, method for their manufacture and their use as herbicides” (Bayer CropScience Aktiengesellschaft, priority 2008, dated 2010)

Legend:
ALOMY = experiment: Herbicidal action pre-emergence (greenhouse pot test, visual rating); type: in vivo, Alopecurus myosuroides; settings: Vorauflauf, 1280 g/ha, visual rating after 3 weeks vs untreated controls
Source text: (§1) Samen von mono- bzw. dikotylen Unkraut- bzw. Kulturpflanzen werden in Holzfasertöpfen in sandiger Lehmerde ausgelegt und mit Erde abgedeckt. Die in Form von benetzbaren Pulvern (WP) oder als Emulsionskonzentrate (EC) formulierten erfindungsgemäßen Verbindungen werden dann als wäßrige Suspension bzw. Emulsion mit einer Wasseraufwandmenge von umgerechnet 600 bis 800 l/ha unter Zusatz von 0,2% Netzmittel auf die Oberfläche der Abdeckerde appliziert.
(§2) Nach der Behandlung werden die Töpfe im Gewächshaus aufgestellt und unter guten Wachstumsbedingungen für die Testpflanzen gehalten. Die visuelle Bonitur der Schäden an den Versuchspflanzen erfolgt nach einer Versuchszeit von 3 Wochen im Vergleich zu unbehandelten Kontrollen (herbizide Wirkung in Prozent (%): 100% Wirkung = Pflanzen sind abgestorben, 0 % Wirkung = wie Kontrollpflanzen).

ABUTH [1] = experiment: as above; type: in vivo, Abutilon theophrasti; settings: Vorauflauf, 1280 g/ha, visual rating after 3 weeks vs untreated controls
Source text: as §1, §2

AMARE [2] = experiment: as above; type: in vivo, Amaranthus retroflexus; settings: Vorauflauf, 1280 g/ha, visual rating after 3 weeks vs untreated controls
Source text: as §1, §2

MATIN [3] = experiment: as above; type: in vivo, Matricaria inodora; settings: Vorauflauf, 1280 g/ha, visual rating after 3 weeks vs untreated controls
Source text: as §1, §2

STEME [4] = experiment: as above; type: in vivo, Stellaria media; settings: Vorauflauf, 1280 g/ha, visual rating after 3 weeks vs untreated controls
Source text: as §1, §2

VERPE [5] = experiment: as above; type: in vivo, Veronica persica; settings: Vorauflauf, 1280 g/ha, visual rating after 3 weeks vs untreated controls
Source text: as §1, §2

ABUTH [6] = experiment: Herbicidal action post-emergence (greenhouse pot test, visual rating); type: in vivo, Abutilon theophrasti; settings: Nachauflauf, 1280 g/ha, visual rating after ca. 3 weeks vs untreated controls
Source text: (§3) Samen von mono- bzw. dikotylen Unkraut- bzw. Kulturpflanzen werden in Holzfasertöpfen in sandigem Lehmboden ausgelegt, mit Erde abgedeckt und im Gewächshaus unter guten Wachstumsbedingungen angezogen. 2 bis 3 Wochen nach der Aussaat werden die Versuchspflanzen im Einblattstadium behandelt. Die in Form von benetzbaren Pulvern (WP) oder als Emulsionskonzentrate (EC) formulierten erfindungsgemäßen Verbindungen werden dann als wäßrige Suspension bzw. Emulsion mit einer Wasseraufwandmenge von umgerechnet 600 bis 800 l/ha unter Zusatz von 0,2% Netzmittel auf die grünen Pflanzenteile gesprüht. Nach ca. 3 Wochen Standzeit der Versuchspflanzen im Gewächshaus unter optimalen Wachstumsbedingungen wird die Wirkung der Präparate visuell im Vergleich zu unbehandelten Kontrollen bonitiert (herbizide Wirkung in Prozent (%): 100% Wirkung = Pflanzen sind abgestorben, 0 % Wirkung = wie Kontrollpflanzen).

AMARE [7] = experiment: as above; type: in vivo, Amaranthus retroflexus; settings: Nachauflauf, 1280 g/ha, visual rating after ca. 3 weeks vs untreated controls
Source text: as §3

MATIN [8] = experiment: as above; type: in vivo, Matricaria inodora; settings: Nachauflauf, 1280 g/ha, visual rating after ca. 3 weeks vs untreated controls
Source text: as §3

PHBPU = experiment: as above; type: in vivo, Pharbitis purpurea; settings: Nachauflauf, 1280 g/ha, visual rating after ca. 3 weeks vs untreated controls
Source text: as §3

STEME [9] = experiment: as above; type: in vivo, Stellaria media; settings: Nachauflauf, 1280 g/ha, visual rating after ca. 3 weeks vs untreated controls
Source text: as §3

VERPE [10] = experiment: as above; type: in vivo, Veronica persica; settings: Nachauflauf, 1280 g/ha, visual rating after ca. 3 weeks vs untreated controls
Source text: as §3

VIOTR [11] = experiment: as above; type: in vivo, Viola tricolor; settings: Nachauflauf, 1280 g/ha, visual rating after ca. 3 weeks vs untreated controls
Source text: as §3

Log P = type: physicochemical
Schadpflanzen [12] = experiment: Herbicidal action post-emergence, summary over the weed spectrum; type: in vivo; settings: Nachauflaufverfahren, Aufwandmenge von 1.28 kg und weniger Aktivsubstanz pro Hektar
Source text: as §3

AVEFA = experiment: Herbicidal action pre-emergence (greenhouse pot test, visual rating); type: in vivo, Avena fatua; settings: Vorauflauf, 1280 g/ha, visual rating after 3 weeks vs untreated controls
Source text: as §1, §2

ECHCG = experiment: as above; type: in vivo, Echinochloa crus-galli; settings: Vorauflauf, 1280 g/ha, visual rating after 3 weeks vs untreated controls
Source text: as §1, §2

LOLMU = experiment: as above; type: in vivo, Lolium multiflorum; settings: Vorauflauf, 1280 g/ha, visual rating after 3 weeks vs untreated controls
Source text: as §1, §2

SETVI = experiment: as above; type: in vivo, Setaria viridis; settings: Vorauflauf, 1280 g/ha, visual rating after 3 weeks vs untreated controls
Source text: as §1, §2

POLCO = experiment: as above; type: in vivo, Polygonum convolvolus; settings: Vorauflauf, 1280 g/ha, visual rating after 3 weeks vs untreated controls
Source text: as §1, §2

VIOTR [13] = experiment: as above; type: in vivo, Viola tricolor; settings: Vorauflauf, 1280 g/ha, visual rating after 3 weeks vs untreated controls
Source text: as §1, §2

Schadpflanzen [14] = experiment: Herbicidal action pre-emergence, summary over the weed spectrum; type: in vivo; settings: Vorauflaufverfahren, Aufwandmenge von 1.28 kg und weniger Aktivsubstanz pro Hektar
Source text: as §1, §2

| Structure (SMILES) | herbizide Wirkung ALOMY (ALOMY) [%] | herbizide Wirkung ABUTH (ABUTH [1]) [%] | herbizide Wirkung AMARE (AMARE [2]) [%] | herbizide Wirkung MATIN (MATIN [3]) [%] | herbizide Wirkung STEME (STEME [4]) [%] | herbizide Wirkung VERPE (VERPE [5]) [%] | herbizide Wirkung gegen Schadpflanzen (Schadpflanzen [12]) | herbizide Wirkung ECHCG (ECHCG) [%] | herbizide Wirkung LOLMU (LOLMU) [%] | herbizide Wirkung SETVI (SETVI) [%] | herbizide Wirkung POLCO (POLCO) [%] | herbizide Wirkung VIOTR (VIOTR [13]) [%] | herbizide Wirkung gegen Schadpflanzen (Schadpflanzen [14]) | also measured |
| --- | --- | --- | --- | --- | --- | --- | --- | --- | --- | --- | --- | --- | --- | --- |
| Cc1cc(OC(C)C)c(C(=O)NC(c2ccc(F)c(F)c2)c2ccon2)c(Cl)n1 (racemic) [Beispiel 174, 2-Chlor-N-[(3,4-difluorphenyl)(isoxazol-3-yl)methyl]-4-isopropoxy-6-methylnicotinamid] | 60 | 100 | 100 | 80 | 100 | 100 |  |  |  |  |  |  |  | herbizide Wirkung ABUTH (ABUTH [6]): 100%; herbizide Wirkung AMARE (AMARE [7]): 100%; herbizide Wirkung MATIN (MATIN [8]): 90%; herbizide Wirkung PHBPU (PHBPU): 80%; herbizide Wirkung STEME (STEME [9]): 100%; herbizide Wirkung VERPE (VERPE [10]): 100%; herbizide Wirkung VIOTR (VIOTR [11]): 80%; logP (Log P): 2.26 |
| CCCOc1cc(C)nc(Cl)c1C(=O)NC(c1ccon1)c1ccc(OC)cc1F (centres unmarked) [Beispiel 2, 2-Chlor-N-[(2-fluor-4-methoxyphenyl)(isoxazol-3-yl)methyl]-6-methyl-4-n-propoxynicotinamid] |  |  |  |  |  |  | sehr gute herbizide Wirkung |  |  |  |  |  |  |  |
| CCCOc1cc(C)nc(Br)c1C(=O)NC(c1ccc(F)c(F)c1)c1ccon1 (centres unmarked) [Beispiel 161] | 90 | 100 | 100 | 100 | 100 | 100 |  | 80 | 90 | 100 | 100 | 100 | sehr gute herbizide Wirkung | herbizide Wirkung AVEFA (AVEFA): 80% |
| CCCOc1cc(C)nc(Br)c1C(=O)NC(c1cccc(Cl)c1)c1ccon1 (centres unmarked) [Beispiel 162] | 90 | 100 | 100 | 100 | 100 | 100 | sehr gute herbizide Wirkung | 80 | 80 | 80 | 100 | 100 | sehr gute herbizide Wirkung |  |
